# According to patent US6375979B2 (Somerset Pharmaceuticals, Inc., priority 1995, dated 2002):
# “And” between values parts separate entries of the source, which are not always exact repeats. Identical values can stand only once. Like-named read-outs stand apart in the source and are kept apart here.
# Tests used:
# [1] = tested on: cultured rat mesencephalic cells; assay: Medium change (glutamate receptor dependent) model of cell death: TH positive cells; details: medium change model
# Method: In these experiments, cells were plated and allowed to stabilize for several days.
# [2] = tested on: cultured embryonic mesencephalic cells; assay: Neuronal survival: [3H]dopamine uptake by cultured mesencephalic cells; format: cell-based, rat
# Excerpt: The amount of uptake by the cultured brain cells corresponds to axonal growth.
# [3] = tested on: TH positive cells in cultured E-14 embryonic mesencephalic cells
substance,measurement,setting,value
desmethylselegiline [R(−)DMS],"TH Immunochemistry, % control, Mean",[1]; 0.5 μM,123.9%
same,"TH Immunochemistry, % control, individual cultures",[1]; 0.5 μM,129.0% and 117.6% and 125.2%
same,"TH Immunochemistry, cells/cm^2, Mean",[1]; 0.5 μM,335.63 cells/cm^2
same,"TH Immunochemistry, cells/cm^2, individual cultures",[1]; 0.5 μM,340.0 cells/cm^2 and 310.0 cells/cm^2 and 330.0 cells/cm^2 and 362.5 cells/cm^2
same,"TH Immunochemistry, % control, Mean",[1]; 5.0 μM,132.1%
same,"TH Immunochemistry, % control, individual cultures",[1]; 5.0 μM,122.3% and 129.9% and 137.5% and 138.5%
same,"TH Immunochemistry, cells/cm^2, Mean",[1]; 5.0 μM,348.13 cells/cm^2
same,"TH Immunochemistry, cells/cm^2, individual cultures",[1]; 5.0 μM,322.5 cells/cm^2 and 342.5 cells/cm^2 and 362.5 cells/cm^2 and 365.0 cells/cm^2
same,"TH Immunochemistry, % control, Mean",[1]; 50 μM,144.9%
same,"TH Immunochemistry, % control, individual cultures",[1]; 50 μM,117.6% and 167.9% and 144.1% and 149.8%
same,"TH Immunochemistry, cells/cm^2, Mean",[1]; 50 μM,381.88 cells/cm^2
same,"TH Immunochemistry, cells/cm^2, individual cultures",[1]; 50 μM,310.0 cells/cm^2 and 442.5 cells/cm^2 and 380.0 cells/cm^2 and 395.0 cells/cm^2
same,"3H-Dopamine Uptake, % Cont",[2]; 0.5 μM,200.4%
same,"3H-Dopamine Uptake, Mean",[2]; 0.5 μM,24020 ± 800
same,"3H-Dopamine Uptake, % Cont",[2]; 5 μM,291.5%
same,"3H-Dopamine Uptake, Mean",[2]; 5 μM,34936 ± 2119
same,"3H-Dopamine Uptake, % Cont",[2]; 50 μM,474.3%
same,"3H-Dopamine Uptake, Mean",[2]; 50 μM,56826 ± 2656
same,"Survival of TH positive cells, % cont.",[3]; 0.5 μM,226.62%
same,"Survival of TH positive cells, Mean cells/cm^2",[3]; 0.5 μM,246.00 ± 22.76 cells/cm^2
same,"Survival of TH positive cells, % cont.",[3]; 5 μM,329.76%
same,"Survival of TH positive cells, Mean cells/cm^2",[3]; 5 μM,357.95 ± 25.76 cells/cm^2
same,"Survival of TH positive cells, % cont.",[3]; 50 μM,360.76%
same,"Survival of TH positive cells, Mean cells/cm^2",[3]; 50 μM,391.60 ± 34.93 cells/cm^2
